“Also recorded” adds a separate entry of the source. Where two headings read alike, the source gives them in different places.
Tests used:
[1] = system: isolated rabbit thoracic aorta; assay: constriction of the isolated rabbit thoracic aorta; conditions: for EC50: Oryctolagus cuniculus
isolated rat uterus = assay: uterotonic activity (isolated rat uterus); conditions: in words
5-HT2 receptors = target: T1, 5-HT2 receptors (Mus musculus, UniProt P35363); assay: head twitch response caused by the compound in mice; format: in vivo
T1 construct: The head twitch model in mice; from tissue; host or cells: living mice (central nervous system)
T1 sequence (P35363 whole entry): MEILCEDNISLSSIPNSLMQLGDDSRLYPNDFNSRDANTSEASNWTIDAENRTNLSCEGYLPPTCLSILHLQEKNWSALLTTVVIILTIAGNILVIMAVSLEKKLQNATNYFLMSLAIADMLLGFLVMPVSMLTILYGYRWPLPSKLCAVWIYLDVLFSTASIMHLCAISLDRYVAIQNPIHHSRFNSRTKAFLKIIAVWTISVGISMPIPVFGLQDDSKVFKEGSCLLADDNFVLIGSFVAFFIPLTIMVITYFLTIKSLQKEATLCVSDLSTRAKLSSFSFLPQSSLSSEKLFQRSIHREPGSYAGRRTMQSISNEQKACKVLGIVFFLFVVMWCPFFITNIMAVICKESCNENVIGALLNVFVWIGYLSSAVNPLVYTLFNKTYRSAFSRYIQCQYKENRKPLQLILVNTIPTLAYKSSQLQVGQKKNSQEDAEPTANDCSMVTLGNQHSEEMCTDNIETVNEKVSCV
Excerpt: The head twitch model in mice represents an experimental model for determining the hallucinogenic action of a compound (the method was described by Handley and Singh, Br.J.Pharmacol., 86, 297-303, 1985). It is believed that the response is conveyed via the 5-HT2 receptors.

[2] = target: T2, isolated rabbit thoracic aorta (serotonin) (Oryctolagus cuniculus, UniProt G1SYA7)
T2 construct: isolated rabbit thoracic aorta; from tissue; host or cells: isolated rabbit thoracic aorta
T2 sequence (G1SYA7 entry or part of it): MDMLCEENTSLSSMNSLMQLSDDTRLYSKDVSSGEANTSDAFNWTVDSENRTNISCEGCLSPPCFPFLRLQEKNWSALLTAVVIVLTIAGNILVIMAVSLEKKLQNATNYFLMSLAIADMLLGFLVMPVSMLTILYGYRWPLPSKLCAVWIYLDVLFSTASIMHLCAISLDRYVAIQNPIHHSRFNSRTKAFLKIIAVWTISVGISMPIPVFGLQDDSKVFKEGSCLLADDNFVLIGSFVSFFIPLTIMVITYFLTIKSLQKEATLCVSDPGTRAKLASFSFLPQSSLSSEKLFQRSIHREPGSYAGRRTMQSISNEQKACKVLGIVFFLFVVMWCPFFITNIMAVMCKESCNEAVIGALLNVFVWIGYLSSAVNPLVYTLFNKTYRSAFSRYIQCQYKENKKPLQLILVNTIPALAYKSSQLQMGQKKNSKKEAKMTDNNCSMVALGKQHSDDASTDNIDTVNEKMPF

[3] = acute toxicity in mice (Miller and Tainter); conditions: mouse, in vivo, intravenous
Excerpt: Exptl. Biol. Med. 57, 261 (1944).

pupil = assay: dilatation of the pupil in mice (Pulewka); format: in vivo; conditions: in words
[4] = system: pentobarbital-anesthetized normotensive rats; assay: blood pressure and heart rate in pentobarbital-anesthetized normotensive rats; format: in vivo, rat; conditions: 450 μg/kg i.v.
pithed rats = assay: vasoconstriction / diastolic pressure in pithed rats (Gillespie); format: in vivo, rat; conditions: 450 μg/kg i.v.; in words

## C#CCN(C)C(=O)[C@@H]1C=C2c3cccc4[nH]cc(c34)C[C@H]2N(C)C1 [Example 4, 9,10-Didehydro-N-methyl-N-(2'-propinyl)-6-methylergoline-8β-carboxamide]
[1]; 0.39 μM (EC50)
  receptors responsible for vasoconstriction: predominantly the result of the activation of α1 -adrenergic receptors and to a lesser extent of the activation of 5-HT2 receptors
[1]; constriction of the isolated rabbit thoracic aorta, read-out: pD2 (converted)
  EC50: 389 nM
[1]; vasoconstriction, read-out: EC50
  EC50: 390 nM
[1]; in words
  constriction of the isolated rabbit thoracic aorta: caused a constriction of the isolated rabbit thoracic aorta
[1]; in words, vs serotonin
  intrinsic activity, aorta constriction: comparable to that of serotonin
Isolated rat uterus
  uterotonic activity: lesser than the one of methylergometrine maleate
5-HT2 receptors; 0.125 to 4 mg/kg i.p., in words
  head twitch response caused by compound: caused a head twitch response in mice; also recorded: at higher doses the activity decreased (autoinhibitory effect)
5-HT2 receptors; i.p.
  dose of maximum head twitch activity: 1 mg/kg
[2]; in words
  mode of inhibition of serotonin constriction: the antagonism was of competitive nature
[2]; inactivated α1-adrenergic receptors, 0.01 to 0.3 μM
  serotonin-antagonistic activity: showed a serotonin-antagonistic activity
[2]; inactivated α1-adrenergic receptors, higher doses
  effect on maximum activity of serotonin: noticeable decrease of the maximum activity of serotonin
[2]; vs serotonin, inactivated α1-adrenergic receptors, smaller doses (0.1 μM), read-out: pA2 (converted)
  Kb: 4.27 nM
[3]
  LD50: 55 mg/kg
pupil; dose-dependent, dose not given
  dilatation of the pupil: dose-dependent dilatation of the pupil
pupil
  behavioural effects in mice: an increased activity, tremor and piloerection
[4]
  respiratory troubles: respiratory troubles could be perceived
[4]; in words
  effect on carotid artery pressure: statistically non-significant changes in carotid artery pressure
[4]; vs initial level
  reduction in heart rate: 20%
Pithed rats
  peripheral vasoconstriction: transient, yet extraordinarily strong peripheric vasoconstriction

From patent US5480885A, “Ergoline derivatives of 1-propinylamine, a process for the manufacture thereof and the use thereof for medicaments” (priority 1991, dated 1996)
